Source: patent US7291629B2, “Neurotrophin antagonist compositions” (Painceptor Pharma Corporation, priority 1996, dated 2007)

Test system: p75 and trkA receptors
Test: Binding of [125I]NGF to PC12 cells in the presence and absence of BDNF
Details: 100 uM compound, 0.5 nM 125I-NGF
Description: The ability of the compounds of Formula I to antagonize NGF interaction with the p75 and trkA receptors was determined as follows.
NGF was labelled using the Lactoperoxidase labelling method (Sutter et al., J. Biol. Chem., 1979) and the labelled NGF was separated from radiolabelling agents and free iodide using a PD-10 Sephadex G-25 column.
PC12 cells were grown in RPMI with 10% heat inactivated donor horse serum and 5% fetal calf serum. Cells were harvested for binding by washing off the media with calcium-magnesium free balanced salt solution (Gey's solution) and incubated in 5 ml Gey's solution at 37° C. for 15 minutes. Cells were pelleted by centrifugation and suspended in Hepes-Krebs Ringer buffer (HKR) (10 mM Hepes pH7.35, containing 125 mM NaCl, 4.8 mM KCl, 1.3 mM CaCl2, 1.2 mM MgSO4, 1.2 mM KH2PO4, 1 mg/ml BSA and 1.0 mg/ml glucose) at a concentration of 4×10^6/ml and kept on ice. (C) NGF Binding The reaction was performed in a 96 well plate. Suspended cells (150 ul, […]) were added to ^125I-NGF (final concentration of 0.5 nM) and the competing compound of Formual I in a final volume of 300 ul of HKR buffer. The plates were incubated with shaking for 2 hr at 4° C. At the end of the incubation, 100 ul aliquots of the reaction sample were added to 400 ul microcentrifuge tubes containing 200 ul of 10% glycerol in HKR buffer. The tubes were centrifuged for 1 minute at ˜5000 rpm and the tip containing the cell pellet was cut off. Radioactivity bound to the cells was determined by measuring the ^125I-NGF associated with each pellet in a gamma counter. Specific binding is calculated as the difference between the amount of ^125I-NGF bound in the absence (total) and presence (NSB) of 50 nM unlabeled NGF. TrkA binding is determined similarly except 10 nM BDNF is added to all reactions. Table 1 summarizes the values obtained from this experiment for the inhibition of binding of NGF to P75 and TrkA by compounds of Formula I.

In order of falling “% Inhibition at 100 uM” value:
1. O=C(O)CN1C(=O)c2cccc3cc([N+](=O)[O-])cc(c23)C1=O [N-(1,3-Dioxo-5-nitro-1,2,3,4-tetrahydrobenzo[i]isoquinoline)acetic acid]  58%
2. O=C1c2cccc3cc([N+](=O)[O-])cc(c23)C(=O)N1CCO [N-(1,3-Dioxo-5-nitro-1,2,3,4-tetrahydrobenzo[i]isoquinoline)-aminoethanol]  44%
3. CN(C)c1ccc2c3c(cccc13)C(=O)N(c1nc3ccccc3[nH]1)C2=O [6-(N,N-Dimethylamino)-2-(benzimidazol-2-yl)naphthalimide]  36%
4. O=C1c2cccc3cccc(c23)C(=O)N1Cc1ccco1 [N-Furfuryl-1,8-naphthalimide]  36%
5. O=C1c2cccc3cccc(c23)C(=O)N1CCc1ccccn1 [N-(Pyrid-2-ylethyl)-1,8-naphthalimide]  35%
6. O=C1CC2C=C(Sc3ccccc3)C=C3C=CC=CC32C(=O)N1CCc1ccccn1 (stereo not drawn) [1,3-Dioxo-6-phenylmercapto-N-(pyrid-2-ylethyl)-1,2,3,4-tetrahydro-benzo[i]isoquinoline]  33%
7. Cc1ccc(S(=O)(=O)Nc2ccccc2N2C(=O)c3cccc4c(N(C)C)ccc(c34)C2=O)cc1 [2-{2-(4-methylphenylsulphonamido)phenyl}-6-(N,N-dimethylamino)-naphthalimide]  29%
8. CCCCCCCCN1C(=O)c2cccc3cc([N+](=O)[O-])cc(c23)C1=O [N-Octyl-5-nitronaphthalimide]  29%
9. O=C1c2cccc3cc([N+](=O)[O-])cc(c23)C(=O)N1CCc1ccccn1 [1,3-Dioxo-5-nitro-N-(pyrid-2-ylethyl)-1,2,3,4-tetrahydro[i]isoquinoline]  28%
10. O=C1c2cccc3cc(Br)cc(c23)C(=O)N1Cc1cccnc1 [5-Bromo-1,3-dioxo-N-methylpyrid-3-yl-1,2,3,4-tetrahydrobenzo[i]isoquinoline]  28%
11. O=C1c2cccc3c([N+](=O)[O-])ccc(c23)C(=O)N1CC1CCCO1 (stereo not drawn) [6-Nitro-2-(tetrahydrofuran-2-ylmethyl)naphthalimide]  28%
12. O=C1c2cccc3cccc(c23)C(=O)N1CCO [N-(1,3-Dioxo-1,2,3,4-tetrahydrobenzo[i]isoquinoline)aminoethanol]  27%
13. NN1C(=O)c2cccc3cccc(c23)C1=O [Naphthalicacid-N-aminoimide]  27%
14. Cc1ccc(S(=O)(=O)Nc2cc(Cl)c(Cl)cc2N2C(=O)c3cccc4cccc(c34)C2=O)cc1 [2-[2-(4-Methylbenzsulphonamido)-4,5-dichlorophenyl]naphthalimide]  26%
15. O=C(O)CCN1C(=O)c2cccc3cc([N+](=O)[O-])cc(c23)C1=O [3-Nitro-1,8-(N-propioncarboxylate)succinamidonapthalene]  25%
16. 3-Amino-7,4-bis(ethyl-1,3-dioxo-1,2,3,4-tetrahydrobenzo[i]isoquinoline  23%
17. O=C1CC2C=CC=C3C=CC=CC32C(=O)N1c1nc2ccccc2[nH]1 (stereo not drawn) [2-(Benzimidaz-2-yl)-1,3-dioxo-1,2,3,4-tetrahydrobenzo[i]isoquinoline]  23%
18. O=C1c2cccc3c([N+](=O)[O-])ccc(c23)C(=O)N1Cc1cccnc1 [6-Nitro-2-(pyrid-3-methyl)naphthalimide]  23%
19. Nc1ccccc1N1C(=O)c2cccc3cccc(c23)C1=O [2-(2-Aminophenyl)naphthalimide]  20%
20. Cc1ccc(S(=O)(=O)Nc2cc(C)c(C)cc2N2C(=O)CC3C=CC=C4C=CC=CC43C2=O)cc1 (stereo not drawn) [1,3-Dioxo-2-[4,5-dimethyl-2-(4-methylphenylsulphonamido)phenyl]-1,2,3,4-tetrahydrobenzo[i]isoquinoline]  19%
21. O=C1c2cccc3cc([N+](=O)[O-])cc(c23)C(=O)N1CC1CCCO1 (stereo not drawn) [1,3-Dioxo-N-methyltetrahydrofurfur-2-yl-5-nitro-1,2,3,4-tetrahydro[i]isoquinoline]  18%
22. CCOc1ccc(N2C(=O)c3cccc4cc([N+](=O)[O-])cc(c34)C2=O)cc1 [N-(4-Ethoxyphenyl)-5-nitronaphthalimide]  18%
23. 3-Methyl-3-(1,3-dioxo-5-nitro(1H,3H)benz[de]isoquinolyl)butyric acid methylester  17%
24. O=C1c2cccc3c([N+](=O)[O-])ccc(c23)C(=O)N1Cc1ccco1 [6-Nitro-2-(furfuryl)naphthalimide]  17%
25. CCOC(=O)CN1C(=O)c2cccc3cc([N+](=O)[O-])cc(c23)C1=O [Ethyl-5-nitro-1,3-dioxo-1H-benz[de]isoquinoline-2-3H-acetate]  16%
26. O=C1c2cccc3cccc(c23)C(=O)N1c1ccccc1O [2-(2-Hydroxyphenyl)naphthalimide]  13%
27. CCCCN1C(=O)c2cccc3cc(N)cc(c23)C1=O [5-Amino-N-butylnaphthalimide]  13%
28. Naphthalicacid-N,N′-diimide  13%
29. O=C1c2cccc3cc([N+](=O)[O-])cc(c23)C(=O)N1CCCN1CCOCC1 [1,3-Dioxo-5-nitro-n-propylmorpholino-1,2,3,4-tetrahydrobenzo[i]isoquinoline]  11%
30. O=C1c2cccc3c([N+](=O)[O-])ccc(c23)C(=O)N1CCc1ccccn1 [6-Nitro-2-(pyrid-2-ylethyl)naphthalimide]  11%
31. CN1C(=O)c2cccc3cccc(c23)C1=O [N-Methylnaphthalimide]  11%
32. O=C1c2cccc3cccc(c23)C(=O)N1Cc1ccccn1 [N-(Pyrid-2-ylmethyl)naphthalimide]  10%
33. Cc1cc(C)cc(N2C(=O)c3cccc4cccc(c34)C2=O)c1 [N-(3,5-Dimethylphenyl)-1,8-naphthalimide]  9%
34. O=C1c2cccc3c(Sc4ccccc4)ccc(c23)C(=O)N1CCO [N-(1,3-Dioxo-6-phenylmercapto-1,2,3,4-tetrahydrobenzo[i]isoquinoline)aminoethanol]  3%
35. O=C1c2cccc3cccc(c23)C(=O)N1Nc1ccccc1 [N-Anilino-1,8-naphthalimide]  1%

Test system: L5/L6 Nerve Ligated and Sham-Operated Rats
Test: not given
Details: i.th; L5/L6 nerve ligated rats

In the case of CN1CC[C@]23c4c5ccc(O)c4O[C@H]2[C@@H](O)C=C[C@H]3[C@H]1C5 [Morphine, morphine, reference compound], the “A50(95% C.L.) Tail Flick- Ligated” value was 2.3 µg.

Same assay, conditions: i.th; sham-operated rats

CN1CC[C@]23c4c5ccc(O)c4O[C@H]2[C@@H](O)C=C[C@H]3[C@H]1C5 [Morphine, morphine, reference compound] was tested, and the “A50(95% C.L.) Tail Flick- Sham” value was 1.45 µg.

Test system: L5/L6 Nerve Ligated rats
Test: Tactile allodynia, nerve ligation injury model (von Frey paw withdrawal threshold)
Details: i.p.

For CN1CC[C@]23c4c5ccc(O)c4O[C@H]2[C@@H](O)C=C[C@H]3[C@H]1C5 [Morphine, morphine, reference compound], the “A50(95% C.L.) Allodynia- Ligated” value was 7.1 mg/kg.

Same assay, conditions: i.th

For CN1CC[C@]23c4c5ccc(O)c4O[C@H]2[C@@H](O)C=C[C@H]3[C@H]1C5 [Morphine, morphine, reference compound], the “A50(95% C.L.) Allodynia- Ligated” value was >100 µg.
